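Interpolation was linear, between the two tested concentrations surrounding the appropriate level; five concentrations were tested over 48 hours in 96-well plates. GI50: concentration for 50% inhibition of growth.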 The source made the active and inactive calls. No stated cut-off is given here; in the data, active = GI50 up to about 1.1 µM and inactive = higher. Positions of bridges follow the written chain, without caps; N, C: chain ends. Residues, ends and D or L forms follow the SMILES beside them.
Legend:
Assay in all cases: NCI anticancer screen, dose series, 48 h
SF-295 = system: SF-295
SR = system: SR
OVCAR-8 = system: OVCAR-8
SF-539 = system: SF-539
SK-MEL-5 = system: SK-MEL-5
DU-145 = system: DU-145
MOLT-4 = system: MOLT-4
SK-MEL-28 = system: SK-MEL-28
MDA-N = system: MDA-N
NCI-H23 = system: NCI-H23
EKVX = system: EKVX
HOP-92 = system: HOP-92
NCI/ADR-RES = system: NCI/ADR-RES
COLO 205 = system: COLO 205
SN12C = system: SN12C
LOX IMVI = system: LOX IMVI
PC-3 = system: PC-3
RPMI-8226 = system: RPMI-8226
T47D = system: T47D
CAKI-1 = system: CAKI-1

CC(=O)CSCc1ccccn1
GI50 (SF-295): 80.9 µM (inactive)
GI50 (SR): 21.5 µM (inactive)
GI50 (OVCAR-8): 38.4 µM (inactive)
GI50 (SF-539): 27 µM (inactive)
GI50 (SK-MEL-5): 26 µM (inactive)
GI50 (DU-145): 65.2 µM (inactive)
GI50 (MOLT-4): 20.7 µM (inactive)
GI50 (SK-MEL-28): 40.2 µM (inactive)
GI50 (MDA-N): 37.8 µM (inactive)
GI50 (NCI-H23): 62.2 µM (inactive)
GI50 (EKVX): 77.1 µM (inactive)
GI50 (HOP-92): 38.6 µM (inactive)
GI50 (NCI/ADR-RES): > 100 µM (inactive)
GI50 (COLO 205): > 100 µM (inactive)
GI50 (SN12C): 75.5 µM (inactive)
GI50 (LOX IMVI): 41.5 µM (inactive)
GI50 (PC-3): 33.7 µM (inactive)
GI50 (RPMI-8226): 12.7 µM (inactive)
GI50 (T47D): 34.8 µM (inactive)

Cc1cccc(NC(=S)Nc2ccccc2Cl)n1
GI50 (SF-295): 32 µM (inactive)
GI50 (SR): > 100 µM (inactive)
GI50 (OVCAR-8): 29.6 µM (inactive)
GI50 (SF-539): 32.1 µM (inactive)
GI50 (SK-MEL-5): 27.9 µM (inactive)
GI50 (DU-145): > 100 µM (inactive)
GI50 (MOLT-4): > 100 µM (inactive)
GI50 (SK-MEL-28): > 100 µM (inactive)
GI50 (CAKI-1): 27.4 µM (inactive)
GI50 (MDA-N): > 100 µM (inactive)
GI50 (EKVX): 21.9 µM (inactive)
GI50 (NCI/ADR-RES): 49 µM (inactive)
GI50 (COLO 205): > 100 µM (inactive)
GI50 (SN12C): 51.8 µM (inactive)
GI50 (LOX IMVI): > 100 µM (inactive)
GI50 (PC-3): > 100 µM (inactive)
GI50 (RPMI-8226): > 100 µM (inactive)
GI50 (T47D): 29 µM (inactive)

S=C1c2ccc(Cl)cc2-n2cnnc2C2CSCN12 (stereo not drawn)
GI50 (SF-295): > 100 µM (inactive)
GI50 (SR): 52.4 µM (inactive)
GI50 (OVCAR-8): > 100 µM (inactive)
GI50 (SK-MEL-5): > 100 µM (inactive)
GI50 (DU-145): > 100 µM (inactive)
GI50 (MOLT-4): > 100 µM (inactive)
GI50 (SK-MEL-28): > 100 µM (inactive)
GI50 (CAKI-1): > 100 µM (inactive)
GI50 (MDA-N): 63.1 µM (inactive)
GI50 (EKVX): > 100 µM (inactive)
GI50 (NCI/ADR-RES): > 100 µM (inactive)
GI50 (COLO 205): > 100 µM (inactive)
GI50 (SN12C): > 100 µM (inactive)
GI50 (LOX IMVI): > 100 µM (inactive)
GI50 (PC-3): > 100 µM (inactive)
GI50 (RPMI-8226): > 100 µM (inactive)
GI50 (T47D): > 100 µM (inactive)

C=C(CC)C[C@@H]1C[C@]2(C(=O)OC)c3[nH]c4ccccc4c3CCN2C1=O
GI50 (SF-295): 14.7 µM (inactive)
GI50 (SR): 29.4 µM (inactive)
GI50 (OVCAR-8): 33 µM (inactive)
GI50 (SF-539): 16.4 µM (inactive)
GI50 (SK-MEL-5): 17.1 µM (inactive)
GI50 (DU-145): 30.4 µM (inactive)
GI50 (MOLT-4): 23 µM (inactive)
GI50 (SK-MEL-28): 19.5 µM (inactive)
GI50 (CAKI-1): 16.9 µM (inactive)
GI50 (MDA-N): 17.4 µM (inactive)
GI50 (NCI-H23): 18.9 µM (inactive)
GI50 (EKVX): 30.8 µM (inactive)
GI50 (HOP-92): 14.7 µM (inactive)
GI50 (NCI/ADR-RES): 19.5 µM (inactive)
GI50 (COLO 205): 33.9 µM (inactive)
GI50 (SN12C): 20 µM (inactive)
GI50 (LOX IMVI): 17.3 µM (inactive)
GI50 (PC-3): 16.7 µM (inactive)
GI50 (T47D): 26.2 µM (inactive)

CC(=O)Oc1cc2c(c3ncccc13)OC(C)(C)C2
GI50 (SF-295): 13 µM (inactive)
GI50 (SR): 1.54 µM (inactive)
GI50 (OVCAR-8): 14.2 µM (inactive)
GI50 (SF-539): 12.1 µM (inactive)
GI50 (SK-MEL-5): 12.5 µM (inactive)
GI50 (DU-145): 15.1 µM (inactive)
GI50 (MOLT-4): 12.3 µM (inactive)
GI50 (SK-MEL-28): 15.2 µM (inactive)
GI50 (CAKI-1): 7.4 µM (inactive)
GI50 (MDA-N): 2.94 µM (inactive)
GI50 (NCI-H23): > 100 µM (inactive)
GI50 (HOP-92): 13 µM (inactive)
GI50 (NCI/ADR-RES): 2.95 µM (inactive)
GI50 (COLO 205): 18.1 µM (inactive)
GI50 (SN12C): 12.2 µM (inactive)
GI50 (PC-3): 20.7 µM (inactive)
GI50 (RPMI-8226): 20.3 µM (inactive)
GI50 (T47D): 17.1 µM (inactive)

O=C1c2ccccc2C(=O)N1CC(O)COc1cccc2ccccc12 (stereo not drawn)
GI50 (SF-295): 98.2 µM (inactive)
GI50 (SR): > 100 µM (inactive)
GI50 (OVCAR-8): > 100 µM (inactive)
GI50 (SK-MEL-5): 63.5 µM (inactive)
GI50 (DU-145): > 100 µM (inactive)
GI50 (MOLT-4): > 100 µM (inactive)
GI50 (SK-MEL-28): > 100 µM (inactive)
GI50 (CAKI-1): 16.2 µM (inactive)
GI50 (MDA-N): > 100 µM (inactive)
GI50 (EKVX): > 100 µM (inactive)
GI50 (NCI/ADR-RES): > 100 µM (inactive)
GI50 (COLO 205): > 100 µM (inactive)
GI50 (LOX IMVI): > 100 µM (inactive)
GI50 (PC-3): > 100 µM (inactive)
GI50 (RPMI-8226): > 100 µM (inactive)
GI50 (T47D): > 10 µM (inactive)

S=c1nc2[nH]c3ccc(Br)cc3c2n[nH]1
GI50 (SR): 19 µM (inactive)
GI50 (OVCAR-8): 52.1 µM (inactive)
GI50 (SF-539): > 100 µM (inactive)
GI50 (SK-MEL-5): 36.4 µM (inactive)
GI50 (DU-145): 85.3 µM (inactive)
GI50 (MOLT-4): 30.3 µM (inactive)
GI50 (SK-MEL-28): > 100 µM (inactive)
GI50 (CAKI-1): 69.8 µM (inactive)
GI50 (MDA-N): 16.7 µM (inactive)
GI50 (EKVX): 14.2 µM (inactive)
GI50 (HOP-92): > 100 µM (inactive)
GI50 (NCI/ADR-RES): 39.8 µM (inactive)
GI50 (COLO 205): 98.4 µM (inactive)
GI50 (SN12C): 66.1 µM (inactive)
GI50 (LOX IMVI): 30.1 µM (inactive)
GI50 (PC-3): 43.1 µM (inactive)
GI50 (RPMI-8226): 37.1 µM (inactive)
GI50 (T47D): > 100 µM (inactive)

CCOC(=S)SSSC(=S)OCC
GI50 (SF-295): 51.5 µM (inactive)
GI50 (SR): 13.5 µM (inactive)
GI50 (OVCAR-8): 13.8 µM (inactive)
GI50 (SF-539): 67.1 µM (inactive)
GI50 (SK-MEL-5): 36.1 µM (inactive)
GI50 (DU-145): 21 µM (inactive)
GI50 (MOLT-4): 27.9 µM (inactive)
GI50 (SK-MEL-28): > 100 µM (inactive)
GI50 (CAKI-1): 29.9 µM (inactive)
GI50 (MDA-N): 49.3 µM (inactive)
GI50 (NCI-H23): 33.4 µM (inactive)
GI50 (EKVX): 48.5 µM (inactive)
GI50 (HOP-92): > 100 µM (inactive)
GI50 (NCI/ADR-RES): 58.1 µM (inactive)
GI50 (COLO 205): 55 µM (inactive)
GI50 (SN12C): 21.6 µM (inactive)
GI50 (LOX IMVI): 25.1 µM (inactive)
GI50 (PC-3): > 100 µM (inactive)
GI50 (RPMI-8226): 24 µM (inactive)
GI50 (T47D): 4.22 µM (inactive)

CCCCN1C(=O)CC2[C@@H]3CCc4cc(OC(C)=O)ccc4C3CC[C@]2(C)C1=O (stereo partly drawn)
GI50 (SF-295): > 10 µM (inactive)
GI50 (SR): > 10 µM (inactive)
GI50 (OVCAR-8): > 10 µM (inactive)
GI50 (SF-539): > 10 µM (inactive)
GI50 (SK-MEL-5): > 10 µM (inactive)
GI50 (DU-145): > 10 µM (inactive)
GI50 (MOLT-4): > 10 µM (inactive)
GI50 (SK-MEL-28): > 10 µM (inactive)
GI50 (CAKI-1): > 10 µM (inactive)
GI50 (MDA-N): > 10 µM (inactive)
GI50 (NCI-H23): > 10 µM (inactive)
GI50 (EKVX): > 10 µM (inactive)
GI50 (HOP-92): > 10 µM (inactive)
GI50 (NCI/ADR-RES): > 10 µM (inactive)
GI50 (COLO 205): > 10 µM (inactive)
GI50 (SN12C): > 10 µM (inactive)
GI50 (LOX IMVI): > 10 µM (inactive)
GI50 (PC-3): > 10 µM (inactive)
GI50 (RPMI-8226): > 10 µM (inactive)
GI50 (T47D): > 10 µM (inactive)

O=C1c2cc3c(cc2CC1Br)CCC3 (stereo not drawn)
GI50 (SF-295): 5.19 µM (inactive)
GI50 (SR): 0.787 µM (active)
GI50 (OVCAR-8): 1.98 µM (inactive)
GI50 (SF-539): 2.03 µM (inactive)
GI50 (SK-MEL-5): 1.18 µM (inactive)
GI50 (DU-145): 16 µM (inactive)
GI50 (MOLT-4): 0.953 µM (active)
GI50 (SK-MEL-28): 3.1 µM (inactive)
GI50 (CAKI-1): 1.71 µM (inactive)
GI50 (MDA-N): 1.82 µM (inactive)
GI50 (NCI-H23): 3 µM (inactive)
GI50 (EKVX): 14.6 µM (inactive)
GI50 (NCI/ADR-RES): 4.14 µM (inactive)
GI50 (COLO 205): 1.97 µM (inactive)
GI50 (SN12C): 1.7 µM (inactive)
GI50 (LOX IMVI): 0.369 µM (active)
GI50 (PC-3): 3.28 µM (inactive)
GI50 (RPMI-8226): 1.82 µM (inactive)
GI50 (T47D): 2.39 µM (inactive)

COC(=O)C1CCC(=O)NCCCCC(NC(=O)C(N)CC(=O)O)C(=O)N1 (stereo not drawn) (H-Asp-Lys-Glu-OMe; lactam 2-3; configuration not given here)
GI50 (SF-295): > 100 µM (inactive)
GI50 (SR): > 100 µM (inactive)
GI50 (OVCAR-8): > 100 µM (inactive)
GI50 (SF-539): > 100 µM (inactive)
GI50 (SK-MEL-5): > 100 µM (inactive)
GI50 (DU-145): > 100 µM (inactive)
GI50 (MOLT-4): > 100 µM (inactive)
GI50 (SK-MEL-28): > 100 µM (inactive)
GI50 (CAKI-1): 82 µM (inactive)
GI50 (MDA-N): > 100 µM (inactive)
GI50 (NCI-H23): 92.5 µM (inactive)
GI50 (EKVX): > 100 µM (inactive)
GI50 (NCI/ADR-RES): > 100 µM (inactive)
GI50 (COLO 205): > 100 µM (inactive)
GI50 (SN12C): > 100 µM (inactive)
GI50 (LOX IMVI): > 100 µM (inactive)
GI50 (PC-3): > 100 µM (inactive)
GI50 (RPMI-8226): > 100 µM (inactive)
GI50 (T47D): > 100 µM (inactive)

— ChEMBL document CHEMBL1201862, “PubChem BioAssay data set” (2004)
